In patent publication US20080064027A1, “TEL/Etv6-mediated inhibition of cell proliferation” (priority 2002, published 2008):
Where two headings read alike, the source gives them in different places.

System: Stat3-ER expressing A375 cells
Type: cell-based
Description: In order to understand Stat3's ability to affect cell proliferation and cell death, we have examined the profile of genes expressed upon Stat3 activation in A375 cells using oligonucleotide microarrays.
Briefly, microarray analysis was performed using HG U95A GeneChips™ (Affymetrix, Santa Clara, USA) essentially according to the manufacturer's instructions. […] RNA from three independent experiments was pooled and biotin-labeled cRNA probes were generated from each sample starting from 10 μg of total cellular RNA. The resulting biotinylated cRNAs were hybridized to the Affymetrix U95A oligonucleotide array containing more than 12,000 sequences and signals detected. Chip analysis was performed using the Affymetrix Microarray Suite v5 (target intensity 500 used for chip scaling) and GeneSpring 4.2.1 (Silicon Genetics). Changes in gene expression were assessed by looking for concordant changes between replicates using a signed Wilcoxon rank test (as recommended by Affymetrix).

Structure (SMILES): CCC(=C(c1ccc(O)cc1)c1ccc(OCCN(C)C)cc1)c1ccccc1 [4HT, 4-hydroxytamoxifen, reference compound]
- expression change (fold): Absent in melanoma 2 (Avge of clones): 2.1
- expression change (fold): Alpha-1-antichymotrypsin precursor (Avge of clones): 2.5
- expression change (fold): Aquaporin 3 (Avge of clones): 5.2
- expression change (fold): Brain-derived neurotrophic factor (Avge of clones): 6.3
- expression change (fold): CCAAT/enhancer binding protein (C/EBP), delta (Avge of clones): 4.6
- expression change (fold): Cathepsin L (Avge of clones): 3.7
- expression change (fold): Cytokine receptor-like factor 1 (Avge of clones): 4.8
- expression change (fold): Death-associated protein kinase 1 (Avge of clones): 5.3
- expression change (fold): Ephrin A1 precursor (Avge of clones): 4.0
- expression change (fold): Ets variant gene 6 (Avge of clones): 4.2
- expression change (fold): Fibronectin (Avge of clones): 4.5
- expression change (fold): Fibronectin 1, isoform 1 preproprotein (Avge of clones): 5.2
- expression change (fold): Glycine dehydrogenase (decarboxylating, glycine decdarboxylase, glycine cleavage system protein P) (Avge of clones): 1.7
- expression change (fold): H. sapiens mRNA; cDNA DZFZp586N012 (Avge of clones): 2.3
- expression change (fold): I factor (complement) (Avge of clones): 2.9
- expression change (fold): Insulin-like growth factor binding protein 3 (Avge of clones): 3.9
- expression change (fold): Intercellular adhesion molecule 1 precursor (Avge of clones): 2.4
- expression change (fold): Interferon induced transmembrane protein 1 (9-27) (Avge of clones): 2.8
- expression change (fold): Interleukin 8 (Avge of clones): 4.9
- expression change (fold): Jun B proto-oncogene (Avge of clones): 3.0
- expression change (fold): KIAA0161 gene product (Avge of clones): 2.4
- expression change (fold): KIAA0303 protein (Avge of clones): 2.9
- expression change (fold): KIAA0500 protein (Avge of clones): 4.2
- expression change (fold): Killer cell lectin-like receptor subfamily C, member 2 (Avge of clones): 6.1
- expression change (fold): Killer cell lectin-like receptor subfamily C, member 3 isoform NKG2-E (Avge of clones): 10.3
- expression change (fold): Kynureninase (L-kynurenine hydrolase) (Avge of clones): 3.6
- expression change (fold): Major vault protein (Avge of clones): 2.8
- expression change (fold): Nicotinamide N-methyltransferase (Avge of clones): 2.6
- expression change (fold): Niemann-Pick disease, type C1 (Avge of clones): 2.2
- expression change (fold): Oncostatin M receptor (Avge of clones): 3.3
- expression change (fold): Osteoprotegrin (Avge of clones): 8.6
- expression change (fold): Prostatic acid phosphatase precursor (Avge of clones): 10.5
- expression change (fold): Ras-induced senescence 1 (Avge of clones): 2.4
- expression change (fold): Regenerating islet-derived 1 alpha (pancreatic stone protein, pancreatic thread protein) (Avge of clones): 4.0
- expression change (fold): Regulator of G protein signalling 16 (Avge of clones): 5.3
- expression change (fold): STAT induced STAT inhibitor 3 (Avge of clones): 9.9
- expression change (fold): Secreted phosphoprotein 1 (osteopontin, bone sialoprotein 1, early T-lymphocyte activation 1) (Avge of clones): 25.5
- expression change (fold): Serine (or cysteine) protease inhibitor, clade B (ovalbumin), member 3 (Avge of clones): 100.2
- expression change (fold): Small inducible cytokine A2 (monocyte chemotactic protein 1) (Avge of clones): 2.4
- expression change (fold): Solute carrier family 2 (facilitated glucose transporter), member 3 (Avge of clones): 2.6
- expression change (fold): Stanniocalcin 1 (Avge of clones): 6.7
- expression change (fold): Tyrosine phosphatase/TIGR = HG620-HT620 (Avge of clones): 2.2
- expression change (fold): v-fos FBJ murine osteosarcoma viral gene homologue (Avge of clones): 3.9
- expression change (fold): v-jun avian sarcoma virus 17 oncogene homologue (Avge of clones): 4.9
- expression change (fold): v-maf musculoaponeurotic fibrosarcoma oncogene homologue (avian) (Avge of clones): 1.6
- expression change (fold): Aquaporin 3 (Avge of clones, 2nd listing): 4.4
- expression change (fold): Fibronectin 1, isoform 1 preproprotein (Avge of clones, 2nd listing): 5.0
- expression change (fold): Insulin-like growth factor binding protein 3 (Avge of clones, 2nd listing): 3.1
- expression change (fold): Interleukin 8 (Avge of clones, 2nd listing): 2.6
- expression change (fold): Kynureninase (L-kynurenine hydrolase) (Avge of clones, 2nd listing): 3.3
- expression change (fold): Oncostatin M receptor (Avge of clones, 2nd listing): 3.3
- expression change (fold): Prostatic acid phosphatase precursor (Avge of clones, 2nd listing): 2.8
- expression change (fold): Secreted phosphoprotein 1 (osteopontin, bone sialoprotein 1, early T-lymphocyte activation 1) (Avge of clones, 2nd listing): 18.4
- expression change (fold): v-jun avian sarcoma virus 17 oncogene homologue (Avge of clones, 2nd listing): 4.3
- expression change (fold): Kynureninase (L-kynurenine hydrolase) (Avge of clones, 3rd listing): 2.9
- expression change (fold): Absent in melanoma 2 (Clone1): 2.2
- expression change (fold): Alpha-1-antichymotrypsin precursor (Clone1): 2.7
- expression change (fold): Aquaporin 3 (Clone1): 5.2
- expression change (fold): Brain-derived neurotrophic factor (Clone1): 8.9
- expression change (fold): CCAAT/enhancer binding protein (C/EBP), delta (Clone1): 5.6
- expression change (fold): Cathepsin L (Clone1): 3.6
- expression change (fold): Cytokine receptor-like factor 1 (Clone1): 5.2
- expression change (fold): Death-associated protein kinase 1 (Clone1): 5.7
- expression change (fold): Ephrin A1 precursor (Clone1): 2.8
- expression change (fold): Ets variant gene 6 (Clone1): 3.9
- expression change (fold): Fibronectin (Clone1): 4.3
- expression change (fold): Fibronectin 1, isoform 1 preproprotein (Clone1): 7.7
- expression change (fold): Glycine dehydrogenase (decarboxylating, glycine decdarboxylase, glycine cleavage system protein P) (Clone1): 1.8
- expression change (fold): H. sapiens mRNA; cDNA DZFZp586N012 (Clone1): 2.6
- expression change (fold): I factor (complement) (Clone1): 3.8
- expression change (fold): Insulin-like growth factor binding protein 3 (Clone1): 2.5
- expression change (fold): Intercellular adhesion molecule 1 precursor (Clone1): 2.8
- expression change (fold): Interferon induced transmembrane protein 1 (9-27) (Clone1): 3.1
- expression change (fold): Interleukin 8 (Clone1): 2.3
- expression change (fold): Jun B proto-oncogene (Clone1): 3.3
- expression change (fold): KIAA0161 gene product (Clone1): 2.5
- expression change (fold): KIAA0303 protein (Clone1): 4.2
- expression change (fold): KIAA0500 protein (Clone1): 1.6
- expression change (fold): Killer cell lectin-like receptor subfamily C, member 2 (Clone1): 9.5
- expression change (fold): Killer cell lectin-like receptor subfamily C, member 3 isoform NKG2-E (Clone1): 18.4
- expression change (fold): Kynureninase (L-kynurenine hydrolase) (Clone1): 4.0
- expression change (fold): Major vault protein (Clone1): 3.6
- expression change (fold): Nicotinamide N-methyltransferase (Clone1): 2.7
- expression change (fold): Niemann-Pick disease, type C1 (Clone1): 2.3
- expression change (fold): Oncostatin M receptor (Clone1): 4.3
- expression change (fold): Osteoprotegrin (Clone1): 12.9
- expression change (fold): Prostatic acid phosphatase precursor (Clone1): 9.3
- expression change (fold): Ras-induced senescence 1 (Clone1): 2.4
- expression change (fold): Regenerating islet-derived 1 alpha (pancreatic stone protein, pancreatic thread protein) (Clone1): 4.7
- expression change (fold): Regulator of G protein signalling 16 (Clone1): 6.9
- expression change (fold): STAT induced STAT inhibitor 3 (Clone1): 9.2
- expression change (fold): Secreted phosphoprotein 1 (osteopontin, bone sialoprotein 1, early T-lymphocyte activation 1) (Clone1): 10.8
- expression change (fold): Serine (or cysteine) protease inhibitor, clade B (ovalbumin), member 3 (Clone1): 103.0
- expression change (fold): Small inducible cytokine A2 (monocyte chemotactic protein 1) (Clone1): 2.8
- expression change (fold): Solute carrier family 2 (facilitated glucose transporter), member 3 (Clone1): 2.9
- expression change (fold): Stanniocalcin 1 (Clone1): 5.2
- expression change (fold): Tyrosine phosphatase/TIGR = HG620-HT620 (Clone1): 2.3
- expression change (fold): v-fos FBJ murine osteosarcoma viral gene homologue (Clone1): 3.6
- expression change (fold): v-jun avian sarcoma virus 17 oncogene homologue (Clone1): 3.6
- expression change (fold): v-maf musculoaponeurotic fibrosarcoma oncogene homologue (avian) (Clone1): 1.2
- expression change (fold): Aquaporin 3 (Clone1, 2nd listing): 5.7
- expression change (fold): Fibronectin 1, isoform 1 preproprotein (Clone1, 2nd listing): 6.8
- expression change (fold): Insulin-like growth factor binding protein 3 (Clone1, 2nd listing): 2.3
- expression change (fold): Interleukin 8 (Clone1, 2nd listing): 2.9
- expression change (fold): Kynureninase (L-kynurenine hydrolase) (Clone1, 2nd listing): 4.3
- expression change (fold): Oncostatin M receptor (Clone1, 2nd listing): 4.2
- expression change (fold): Prostatic acid phosphatase precursor (Clone1, 2nd listing): 3.3
- expression change (fold): Secreted phosphoprotein 1 (osteopontin, bone sialoprotein 1, early T-lymphocyte activation 1) (Clone1, 2nd listing): 16.9
- expression change (fold): v-jun avian sarcoma virus 17 oncogene homologue (Clone1, 2nd listing): 5.6
- expression change (fold): Kynureninase (L-kynurenine hydrolase) (Clone1, 3rd listing): 3.9
- expression change (fold): Absent in melanoma 2 (Clone2): 2.0
- expression change (fold): Alpha-1-antichymotrypsin precursor (Clone2): 2.3
- expression change (fold): Aquaporin 3 (Clone2): 5.1
- expression change (fold): Brain-derived neurotrophic factor (Clone2): 3.6
- expression change (fold): CCAAT/enhancer binding protein (C/EBP), delta (Clone2): 3.7
- expression change (fold): Cathepsin L (Clone2): 3.8
- expression change (fold): Cytokine receptor-like factor 1 (Clone2): 4.3
- expression change (fold): Death-associated protein kinase 1 (Clone2): 4.8
- expression change (fold): Ephrin A1 precursor (Clone2): 5.2
- expression change (fold): Ets variant gene 6 (Clone2): 4.5
- expression change (fold): Fibronectin (Clone2): 4.6
- expression change (fold): Fibronectin 1, isoform 1 preproprotein (Clone2): 2.6
- expression change (fold): Glycine dehydrogenase (decarboxylating, glycine decdarboxylase, glycine cleavage system protein P) (Clone2): 1.6
- expression change (fold): H. sapiens mRNA; cDNA DZFZp586N012 (Clone2): 2.0
- expression change (fold): I factor (complement) (Clone2): 2.0
- expression change (fold): Insulin-like growth factor binding protein 3 (Clone2): 5.4
- expression change (fold): Intercellular adhesion molecule 1 precursor (Clone2): 2.1
- expression change (fold): Interferon induced transmembrane protein 1 (9-27) (Clone2): 2.5
- expression change (fold): Interleukin 8 (Clone2): 7.4
- expression change (fold): Jun B proto-oncogene (Clone2): 2.6
- expression change (fold): KIAA0161 gene product (Clone2): 2.4
- expression change (fold): KIAA0303 protein (Clone2): 1.7
- expression change (fold): KIAA0500 protein (Clone2): 6.7
- expression change (fold): Killer cell lectin-like receptor subfamily C, member 2 (Clone2): 2.7
- expression change (fold): Killer cell lectin-like receptor subfamily C, member 3 isoform NKG2-E (Clone2): 2.2
- expression change (fold): Kynureninase (L-kynurenine hydrolase) (Clone2): 3.2
- expression change (fold): Major vault protein (Clone2): 2.0
- expression change (fold): Nicotinamide N-methyltransferase (Clone2): 2.5
- expression change (fold): Niemann-Pick disease, type C1 (Clone2): 2.2
- expression change (fold): Oncostatin M receptor (Clone2): 2.4
- expression change (fold): Osteoprotegrin (Clone2): 4.4
- expression change (fold): Prostatic acid phosphatase precursor (Clone2): 11.7
- expression change (fold): Ras-induced senescence 1 (Clone2): 2.5
- expression change (fold): Regenerating islet-derived 1 alpha (pancreatic stone protein, pancreatic thread protein) (Clone2): 3.4
- expression change (fold): Regulator of G protein signalling 16 (Clone2): 3.7
- expression change (fold): STAT induced STAT inhibitor 3 (Clone2): 10.5
- expression change (fold): Secreted phosphoprotein 1 (osteopontin, bone sialoprotein 1, early T-lymphocyte activation 1) (Clone2): 40.1
- expression change (fold): Serine (or cysteine) protease inhibitor, clade B (ovalbumin), member 3 (Clone2): 97.5
- expression change (fold): Small inducible cytokine A2 (monocyte chemotactic protein 1) (Clone2): 2.0
- expression change (fold): Solute carrier family 2 (facilitated glucose transporter), member 3 (Clone2): 2.3
- expression change (fold): Stanniocalcin 1 (Clone2): 8.3
- expression change (fold): Tyrosine phosphatase/TIGR = HG620-HT620 (Clone2): 2.1
- expression change (fold): v-fos FBJ murine osteosarcoma viral gene homologue (Clone2): 4.1
- expression change (fold): v-jun avian sarcoma virus 17 oncogene homologue (Clone2): 6.3
- expression change (fold): v-maf musculoaponeurotic fibrosarcoma oncogene homologue (avian) (Clone2): 2.0
- expression change (fold): Aquaporin 3 (Clone2, 2nd listing): 3.2
- expression change (fold): Fibronectin 1, isoform 1 preproprotein (Clone2, 2nd listing): 3.3
- expression change (fold): Insulin-like growth factor binding protein 3 (Clone2, 2nd listing): 3.9
- expression change (fold): Interleukin 8 (Clone2, 2nd listing): 2.2
- expression change (fold): Kynureninase (L-kynurenine hydrolase) (Clone2, 2nd listing): 2.4
- expression change (fold): Oncostatin M receptor (Clone2, 2nd listing): 2.5
- expression change (fold): Prostatic acid phosphatase precursor (Clone2, 2nd listing): 2.4
- expression change (fold): Secreted phosphoprotein 1 (osteopontin, bone sialoprotein 1, early T-lymphocyte activation 1) (Clone2, 2nd listing): 20.0
- expression change (fold): v-jun avian sarcoma virus 17 oncogene homologue (Clone2, 2nd listing): 3.1
- expression change (fold): Kynureninase (L-kynurenine hydrolase) (Clone2, 3rd listing): 2.0
- number of genes significantly decreased (after 24 hrs of treatment): 23 genes
- number of genes significantly increased (after 24 hrs of treatment): 154 genes
- number of genes upregulated more than two-fold (after 24 hrs of treatment): 39 genes
- SOCS3 expression (as early as 1 hr after treatment): rapidly increased
